Assay results published in US12716055B2, “Treatment of disc degenerative disease and stimulation of proteoglycan synthesis by fibroblast conditioned media and formulations thereof” (FIBROBIOLOGICS, INC., priority 2019, dated 2026).

System: Neonatal foreskin fibroblasts
Assay: EGF production in foreskin fibroblasts cultured with naltrexone and TLR agonists (ELISA)
Type: cell-based
Conditions: treatment of fibroblasts with opioid receptor antagonist, 12 hours of culture, 50% confluent
Excerpt: The present example characterizes the use of naltrexone and a TLR agonist to stimulate EGF production in foreskin fibroblasts as an example of a type of fibroblasts.
Neonatal foreskin fibroblasts were obtained from ATCC and cultured in typical DMEM culture media containing 10% fetal calf serum and antibiotics. After 3 days of culture, fibroblasts where plated in 12 well plates and cultured at 50% confluent conditions. Addition of naltrexone (Sigma Aldrich®) and the indicated TLR agonists was performed for 12 hours of culture. Pam3CSK4 was added at a total concentration of 1 ug/ml. LPS was added at 0.5 ug/ml. CpG was added at 0.2 ug/ml. Concentration of EGF was assessed using ELISA (R&D Systems).

O=C1CC[C@@]2(O)[C@H]3Cc4ccc(O)c5c4[C@@]2(CCN3CC2CC2)[C@H]1O5 [naltrexone]
production of growth factors including EGF by fibroblasts: induce production of various growth factors including EGF
